ChEMBL document CHEMBL1201862, “PubChem BioAssay data set” (2004)
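How tested: cells in 96-well plates exposed to compound for 48 hours at five concentrations. GI50 = concentration required for 50% inhibition of growth.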 Activity calls are given as the source filed them. Rule as the data show it: active = GI50 up to about 1.1 µM and inactive = higher.

Columns and labels:
Assay in all cases: NCI tumour cell line growth inhibition, 48 h
HOP-62 = system: HOP-62
UACC-62 = system: UACC-62
OVCAR-3 = system: OVCAR-3
RXF 393 = system: RXF 393
ACHN = system: ACHN
SF-295 = system: SF-295
EKVX = system: EKVX
SK-MEL-5 = system: SK-MEL-5
MCF7 = system: MCF7
UACC-257 = system: UACC-257
KM12 = system: KM12
OVCAR-5 = system: OVCAR-5
UO-31 = system: UO-31
SNB-75 = system: SNB-75
CAKI-1 = system: CAKI-1
NCI-H460 = system: NCI-H460
MDA-N = system: MDA-N
NCI-H226 = system: NCI-H226
SK-OV-3 = system: SK-OV-3
SR = system: SR
M14 = system: M14
MOLT-4 = system: MOLT-4
SF-539 = system: SF-539
SN12C = system: SN12C
SF-268 = system: SF-268
CCRF-CEM = system: CCRF-CEM
NCI-H522 = system: NCI-H522
786-0 = system: 786-0
HT-29 = system: HT-29
TK-10 = system: TK-10
LOX IMVI = system: LOX IMVI
NCI-H23 = system: NCI-H23
RPMI-8226 = system: RPMI-8226
HOP-92 = system: HOP-92
NCI/ADR-RES = system: NCI/ADR-RES
COLO 205 = system: COLO 205
A498 = system: A498
HL-60 = system: HL-60
SW-620 = system: SW-620
HCC 2998 = system: HCC 2998
HCT-15 = system: HCT-15
T47D = system: T47D
A549 = system: A549
DU-145 = system: DU-145
HCT-116 = system: HCT-116
OVCAR-8 = system: OVCAR-8
K562 = system: K562
Hs-578T = system: Hs-578T
MDA-MB-435 = system: MDA-MB-435
MDA-MB-231 = system: MDA-MB-231
Malme-3M = system: Malme-3M
PC-3 = system: PC-3
SNB-19 = system: SNB-19
U-251 = system: U-251
SK-MEL-2 = system: SK-MEL-2
OVCAR-4 = system: OVCAR-4
SK-MEL-28 = system: SK-MEL-28
IGROV-1 = system: IGROV-1

## COC1CC(COCc2ccccc2)CC(OC)O1 (stereo unspecified)
HOP-62
  GI50: > 100 µM (inactive)
UACC-62
  GI50: > 100 µM (inactive)
OVCAR-3
  GI50: > 100 µM (inactive)
RXF 393
  GI50: > 100 µM (inactive)
ACHN
  GI50: > 100 µM (inactive)
SF-295
  GI50: > 100 µM (inactive)
EKVX
  GI50: > 100 µM (inactive)
SK-MEL-5
  GI50: > 100 µM (inactive)
MCF7
  GI50: > 100 µM (inactive)
UACC-257
  GI50: > 100 µM (inactive)
KM12
  GI50: > 100 µM (inactive)
OVCAR-5
  GI50: > 100 µM (inactive)
UO-31
  GI50: > 100 µM (inactive)
SNB-75
  GI50: > 100 µM (inactive)
CAKI-1
  GI50: > 100 µM (inactive)
NCI-H460
  GI50: > 100 µM (inactive)
MDA-N
  GI50: > 100 µM (inactive)
NCI-H226
  GI50: > 100 µM (inactive)
SK-OV-3
  GI50: > 100 µM (inactive)
SR
  GI50: > 100 µM (inactive)
M14
  GI50: > 100 µM (inactive)
MOLT-4
  GI50: > 100 µM (inactive)
SF-539
  GI50: > 100 µM (inactive)
SN12C
  GI50: > 100 µM (inactive)
SF-268
  GI50: > 100 µM (inactive)
CCRF-CEM
  GI50: 0.0198 µM (active)
NCI-H522
  GI50: > 100 µM (inactive)
786-0
  GI50: > 100 µM (inactive)
HT-29
  GI50: > 100 µM (inactive)
TK-10
  GI50: > 100 µM (inactive)
LOX IMVI
  GI50: 64 µM (inactive)
NCI-H23
  GI50: > 100 µM (inactive)
RPMI-8226
  GI50: > 100 µM (inactive)
HOP-92
  GI50: > 100 µM (inactive)
NCI/ADR-RES
  GI50: > 100 µM (inactive)
COLO 205
  GI50: > 100 µM (inactive)
A498
  GI50: > 100 µM (inactive)
HL-60
  GI50: < 0.01 µM (active)
SW-620
  GI50: > 100 µM (inactive)
HCC 2998
  GI50: > 100 µM (inactive)
HCT-15
  GI50: > 100 µM
T47D
  GI50: > 100 µM (inactive)
A549
  GI50: > 100 µM (inactive)
DU-145
  GI50: > 100 µM (inactive)
HCT-116
  GI50: > 100 µM (inactive)
OVCAR-8
  GI50: > 100 µM (inactive)
K562
  GI50: > 100 µM (inactive)
Hs-578T
  GI50: > 100 µM (inactive)
MDA-MB-435
  GI50: > 100 µM (inactive)

## CCOC(=O)c1sc2c(c1OC(=O)c1ccc(Cl)cc1Cl)c(=O)n(-c1ccccc1)c(=S)n2-c1ccccc1
HOP-62
  GI50: 10 µM (inactive)
UACC-62
  GI50: 20 µM (inactive)
OVCAR-3
  GI50: 21 µM (inactive)
RXF 393
  GI50: > 100 µM (inactive)
ACHN
  GI50: 4.85 µM (inactive)
MDA-MB-231
  GI50: 20.9 µM (inactive)
SF-295
  GI50: 6.76 µM (inactive)
EKVX
  GI50: 17.1 µM (inactive)
Malme-3M
  GI50: 22.9 µM (inactive)
SK-MEL-5
  GI50: 11.7 µM (inactive)
MCF7
  GI50: 24.5 µM (inactive)
UACC-257
  GI50: 35.3 µM (inactive)
KM12
  GI50: 5.73 µM (inactive)
OVCAR-5
  GI50: 35.4 µM (inactive)
PC-3
  GI50: 7.08 µM (inactive)
UO-31
  GI50: 13.4 µM (inactive)
SNB-75
  GI50: 7.01 µM (inactive)
CAKI-1
  GI50: 17.9 µM (inactive)
NCI-H460
  GI50: 5.24 µM (inactive)
MDA-N
  GI50: 22 µM (inactive)
NCI-H226
  GI50: 6.73 µM (inactive)
SK-OV-3
  GI50: 5.42 µM (inactive)
M14
  GI50: 29.4 µM (inactive)
SNB-19
  GI50: > 24 µM (inactive)
MOLT-4
  GI50: 3.17 µM (inactive)
SF-539
  GI50: 25.9 µM (inactive)
SN12C
  GI50: 4.22 µM (inactive)
U-251
  GI50: 5.21 µM (inactive)
SF-268
  GI50: 8.02 µM (inactive)
CCRF-CEM
  GI50: 3.27 µM (inactive)
NCI-H522
  GI50: 4.74 µM (inactive)
786-0
  GI50: 25.6 µM (inactive)
HT-29
  GI50: 8.89 µM (inactive)
TK-10
  GI50: 17 µM (inactive)
LOX IMVI
  GI50: 20.8 µM (inactive)
NCI-H23
  GI50: 4.91 µM (inactive)
RPMI-8226
  GI50: 4.58 µM (inactive)
HOP-92
  GI50: 3.49 µM (inactive)
SK-MEL-2
  GI50: 3.97 µM (inactive)
NCI/ADR-RES
  GI50: 9.66 µM (inactive)
COLO 205
  GI50: 3.94 µM (inactive)
A498
  GI50: 5.08 µM (inactive)
HL-60
  GI50: 4.29 µM (inactive)
SW-620
  GI50: 9.64 µM (inactive)
OVCAR-4
  GI50: 40.6 µM (inactive)
HCC 2998
  GI50: 24.5 µM (inactive)
SK-MEL-28
  GI50: > 76.4 µM (inactive)
HCT-15
  GI50: 5.08 µM
T47D
  GI50: > 35.5 µM (inactive)
A549
  GI50: 8.55 µM (inactive)
IGROV-1
  GI50: 4.06 µM (inactive)
DU-145
  GI50: 31.1 µM (inactive)
HCT-116
  GI50: 8.13 µM (inactive)
OVCAR-8
  GI50: 6.11 µM (inactive)
K562
  GI50: 3.75 µM (inactive)
Hs-578T
  GI50: 7.48 µM (inactive)
MDA-MB-435
  GI50: > 51.2 µM (inactive)

## SC1=NC2=C(CSC/C2=C\c2cccc(Br)c2)C(c2cccc(Br)c2)N1 (stereo unspecified)
HOP-62
  GI50: > 100 µM (inactive)
UACC-62
  GI50: > 100 µM (inactive)
OVCAR-3
  GI50: > 100 µM (inactive)
RXF 393
  GI50: > 100 µM (inactive)
ACHN
  GI50: > 100 µM (inactive)
MDA-MB-231
  GI50: > 100 µM (inactive)
SF-295
  GI50: > 100 µM (inactive)
EKVX
  GI50: 42.3 µM (inactive)
Malme-3M
  GI50: > 100 µM (inactive)
SK-MEL-5
  GI50: 30.3 µM (inactive)
MCF7
  GI50: 64.1 µM (inactive)
UACC-257
  GI50: > 100 µM (inactive)
KM12
  GI50: 88.5 µM (inactive)
OVCAR-5
  GI50: > 100 µM (inactive)
PC-3
  GI50: 46.7 µM (inactive)
SNB-75
  GI50: 41.6 µM (inactive)
CAKI-1
  GI50: > 100 µM (inactive)
NCI-H460
  GI50: 55.6 µM (inactive)
MDA-N
  GI50: 68.2 µM (inactive)
NCI-H226
  GI50: > 100 µM (inactive)
SK-OV-3
  GI50: > 100 µM (inactive)
M14
  GI50: 46.2 µM (inactive)
SNB-19
  GI50: > 100 µM (inactive)
MOLT-4
  GI50: 38.7 µM (inactive)
SF-539
  GI50: > 100 µM (inactive)
SN12C
  GI50: > 100 µM (inactive)
U-251
  GI50: > 100 µM (inactive)
SF-268
  GI50: > 100 µM (inactive)
CCRF-CEM
  GI50: 65.9 µM (inactive)
NCI-H522
  GI50: > 100 µM (inactive)
786-0
  GI50: 66.8 µM (inactive)
HT-29
  GI50: 42.3 µM (inactive)
TK-10
  GI50: > 100 µM (inactive)
LOX IMVI
  GI50: > 100 µM (inactive)
NCI-H23
  GI50: 63.4 µM (inactive)
RPMI-8226
  GI50: 64.7 µM (inactive)
SK-MEL-2
  GI50: > 100 µM (inactive)
NCI/ADR-RES
  GI50: 61.9 µM (inactive)
COLO 205
  GI50: 36.2 µM (inactive)
A498
  GI50: > 100 µM (inactive)
HL-60
  GI50: > 100 µM (inactive)
SW-620
  GI50: > 100 µM (inactive)
OVCAR-4
  GI50: 93.5 µM (inactive)
HCC 2998
  GI50: > 100 µM (inactive)
SK-MEL-28
  GI50: > 100 µM (inactive)
HCT-15
  GI50: > 100 µM
T47D
  GI50: 25 µM (inactive)
A549
  GI50: > 100 µM (inactive)
IGROV-1
  GI50: > 100 µM (inactive)
DU-145
  GI50: > 100 µM (inactive)
HCT-116
  GI50: 43.7 µM (inactive)
OVCAR-8
  GI50: > 100 µM (inactive)
K562
  GI50: 45.7 µM (inactive)
Hs-578T
  GI50: > 100 µM (inactive)
MDA-MB-435
  GI50: 41.3 µM (inactive)
